{
  "source": "patent US20230146795A1",
  "about": "“ENHANCEMENT OF ANTI-TUMOR ACTIVITY OF SHP2 INHIBITOR PYRIMIDINONE IN COMBINATION WITH NOVEL CANCER MEDICINES IN CANCERS” (TAIHO PHARMACEUTICAL CO., LTD., priority 2020, published 2023)",
  "key": {"SHP2": {"biological_target": "T1, SHP2 (Homo sapiens, UniProt Q06124)", "T1 sequence (Q06124 1-593)": "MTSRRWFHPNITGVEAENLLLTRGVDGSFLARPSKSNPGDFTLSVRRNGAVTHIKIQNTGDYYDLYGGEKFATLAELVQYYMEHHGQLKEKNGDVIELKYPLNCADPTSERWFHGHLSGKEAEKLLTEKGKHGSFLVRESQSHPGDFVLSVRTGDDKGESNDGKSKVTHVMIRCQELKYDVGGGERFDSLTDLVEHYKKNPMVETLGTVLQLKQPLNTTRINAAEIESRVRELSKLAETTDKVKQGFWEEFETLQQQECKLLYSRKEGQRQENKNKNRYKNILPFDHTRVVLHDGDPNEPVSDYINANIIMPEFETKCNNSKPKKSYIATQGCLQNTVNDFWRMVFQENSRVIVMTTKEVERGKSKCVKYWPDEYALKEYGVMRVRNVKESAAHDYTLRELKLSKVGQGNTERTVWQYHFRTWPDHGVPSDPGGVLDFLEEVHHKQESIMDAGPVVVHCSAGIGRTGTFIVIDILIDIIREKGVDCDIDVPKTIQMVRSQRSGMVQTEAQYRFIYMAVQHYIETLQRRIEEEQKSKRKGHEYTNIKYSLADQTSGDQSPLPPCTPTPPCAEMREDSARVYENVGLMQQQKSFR", "assay": "SHP2 biochemical assay (DiFMUP conversion)", "conditions": "10 pM SHP2, 0.25 μM pIRS1 peptide, 50 μM DiFMUP", "protocol": "(1) SHP2 Biochemical Assay SHP2 Activity was Monitored by Measuring the Conversion of the Surrogate Substrate 6,8-Difluoromethylumbelliferyl Phosphate (DiEMUP) to the Fluorescent Product, 6,8-Difluoromethylumbelliferone (DiFMU).\nSHP2 was pre-incubated with test compounds and the activating peptide pIRS1 (H2N-LN(pY) IDLDLV-(PEG) 8-LST(pY)ASINFQK-amide) for 30 min, prior to addition of the 6,8-difluoromethylumbelliferyl phosphate (DiEMUP), (Thermo Fisher D6567). Final assay concentrations were 10 pM SHP2, 0.25 μM pIRS1 peptide, 50 μM DiFMUP, 25 mM Bis-Tris propane, pH 7.0, 150 mM NaCl, 0.05% (v/v) Tween-20, 0.5 mM TCEP and 5% (v/v) DMSO. Rates of reaction were then measured over 30 min by monitoring fluorescence on a BMG Pherastar reader at excitation 360 nm/emission 450 nm. IC50 values were calculated in singlicate from the normalized dose-response plots using four parameter logistic curve fit. The Experiment for each compound was carried out in one time or multiple times, and the IC50 values were shown as a single value (for a compound measured in a single experiment) or an average value (for a compound measured in multiple experiments)."}, "[1]": {"system": "NCI-H358, MKN45, NCI-H23, RT 4, MV-4-11, RMG-I", "assay": "Anti-proliferation assay, summary over the cell lines of table 3", "assay_type": "cell-based", "protocol": "Cell lines were obtained from ATCC or Health Science Research Resources Bank.\n384 well culture plate (781086, Greiner Bio-One International) was used for cell survival rate measurement assay. Each cell lines were collected by ordinary method, then suspended in indicated medium containing 10% fetal bovine serum in table 3. The number of cells seeded per well was set to 500 cells/20 μL. After incubation at 37° C. for 24 hours under 5% CO2, Compound 1 and additional compound having an antitumor effect or a vehicle (DMSO) was added to each well by using D300e Digital Dispenser (Tecan). The concentration of Compound 1 was set to 10 concentrations. The concentration of each anti-cancer reagents set to 8 concentrations including 0 nM. After adding the medicine to the cells, the cells were further incubated at 37° C. for 3 days under 5% CO2. Cell survival rates were calculated by adding 20 μL of CellTiter-Glo(registered trademark) 2. 0 (Promega) solution to each well, incubating the cells at room temperature for 10 minutes, and then measuring the chemiluminescence intensity of each well using a plate reader (ARVO).\nA combination index (CI) value at each combined concentration of the medicines was determined."}, "[2]": {"system": "human pancreatic cancer cell line MIA PaCa-2 (KRAS mutation)", "assay": "Antitumor effect on MIA PaCa-2 tumor subcutaneously implanted to CB17 SCID mouse", "assay_type": "in vivo", "conditions": "for T/C: once a day, Day 18", "protocol": "MIA PaCa-2 cell line carries KRAS mutation.\nA human pancreatic cancer line, MIA PaCa-2 (available from American Type Culture Collection), suspended in a mixture of PBS and Matrigel was subcutaneously implanted to male CB17 SCID mice at 7-10 weeks of age (Charles River UK) at 5×10^6 cells/100 μl/mouse. Tumors were measured with a pair of digital calipers, and tumor volumes (TV) were calculated by applying the formula for ellipsoid. Mice with TV of 146 to 360 mm^3 were assigned to study groups such that average TV was equal among groups.\nOral administration of Compound 1 or its vehicle, and Compound 9 or its vehicle was started on Day 1. Compound 1 was dissolved in an acidified solution of 0.5% (w/v) hydroxypropyl methylcellulose (Sigma) and administered via oral gavage at 6 or 12 mg/kg/day. Compound 9 was suspended in 20% (v/v) PEG200 (Sigma) and 0.5% (w/v) methylcellulose (Sigma) and administered via oral gavage at 50 mg/kg/day. All treatments were given once a day for 21 consecutive days, except for the combination group receiving 12 mg/kg of Compound 1 and 50 mg/kg of Compound 9, in which the animals were treated for 5 days per week for 3 weeks.\nAntitumor effects were evaluated by comparing the median relative tumor volumes (RTV) between control- and treated groups. RTV was calculated by dividing TV on any test day by TV on Day 1, expressed as a percentage. T/C (%), as a measure of anti-tumor activity, was calculated by dividing median RTV values of each compound-administered group by median RTV of the control group receiving both vehicles."}},
  "data": [
    {"smiles": "Cn1nc2ccc(-c3c[nH]c4nc(N5[C@H]6CC[C@@H]5[C@H](N)C6)n(C)c(=O)c34)c(Cl)c2c1Cl", "note": "[Compound 1, 2-((1R,2R,4S)-2-amino-7-azabicyclo[2.2.1]heptan-7-yl)-5-(3,4-dichloro-2-methyl-2H-indazol-5-yl)-3-methyl-3,7-dihydro-4H-pyrrolo[2,3-d]pyrimidin-4-one]", "values": [
      {"measurement": "IC50", "setting": "SHP2", "value": 2, "unit": "nM"},
      {"measurement": "anti-proliferation activity in combination", "setting": "[1]; with ALK, Her family (EGFR and HER2), BCR-ABL, FLT3, multi-kinase (PDGFR and VEGFR), c-kit inhibitor", "value": "synergistically enhanced"},
      {"measurement": "anti-proliferation activity in combination", "setting": "[1]; with BCL2 inhibitor", "value": "synergistically enhanced"},
      {"measurement": "anti-proliferation activity in combination", "setting": "[1]; with CDK4/6 inhibitor", "value": "synergistically enhanced"},
      {"measurement": "anti-proliferation activity in combination", "setting": "[1]; with HDAC inhibitor", "value": "synergistically enhanced"},
      {"measurement": "anti-proliferation activity in combination", "setting": "[1]; with PI3K inhibitor or AKT inhibitor", "value": "synergistically enhanced"},
      {"measurement": "anti-proliferation activity in combination", "setting": "[1]; with RAF inhibitor, MEK inhibitor or ERK inhibitor", "value": "synergistically enhanced"},
      {"measurement": "anti-proliferation activity in combination", "setting": "[1]; with anthracycline antibiotics", "value": "synergistically enhanced"},
      {"measurement": "anti-proliferation activity in combination", "setting": "[1]; with anti-metabolite", "value": "synergistically enhanced"},
      {"measurement": "anti-proliferation activity in combination", "setting": "[1]; with microtubule inhibitor", "value": "synergistically enhanced"},
      {"measurement": "anti-proliferation activity in combination", "setting": "[1]; with platinum antitumor agent", "value": "synergistically enhanced"},
      {"measurement": "anti-proliferation activity in combination", "setting": "[1]; with topoisomerase inhibitor", "value": "synergistically enhanced"},
      {"measurement": "tumor response", "setting": "[2]; Compound 1 alone 6 mg/kg/day", "value": "transient stasis"},
      {"measurement": "T/C", "setting": "[2]; Compound 1 alone 6 mg/kg/day oral", "value": 58, "unit": "%"},
      {"measurement": "partial regression (tumor shrinkage of 50% or above), mice", "setting": "[2]; Compound 1 alone 12 mg/kg/day", "value": "2 out of 8"},
      {"measurement": "tumor response", "setting": "[2]; Compound 1 alone 12 mg/kg/day", "value": "tumor stasis"},
      {"measurement": "T/C", "setting": "[2]; Compound 1 alone 12 mg/kg/day oral", "value": 33, "unit": "%"}
    ]}
  ]
}
